How the values were obtained:
[1] = tested on: histone H3 acetylation (Lys 9,14) (AcH3); experiment: Western blot of histone H3 acetylation (AcH3) in H1975 cells; format: cell-based, human; details: 10 μM, 24 h (Figure 1A,B)
Experimental: An increase of histone acetylation is a well-characterized hallmark of HDAC inhibition. […] After the cancer cells were treated with the designated drug candidates, they were harvested in lysis buffer (0.05 M HEPES, 0.15 M NaCl, 2 mM EDTA, 10% v/v glycerol, and 1% v/v Triton X-100, pH 7.4) supplemented with protease and phosphatase inhibitors. Sodium dodecyl sulfate poly(acrylamide) gel electrophoresis (SDS-PAGE) was used to separate the different proteins in the whole cell lysates, which were then transferred to a poly(vinylidene difluoride) membrane for immunoblot analysis using different specific antibodies (acetylated histone H3, acetylated α-tubulin, histone H3, or GAPDH; Cell Signaling Technology). The bands corresponding to specific proteins of interest were visualized by using the WesternBright ECL HRP substrate (Advansta, San Jose, California). A chemiluminescent Western blot signal was detected and analyzed using a ChemiDoc MP system (Bio-Rad Laboratories, Hercules, California).

[2] = target: T1, ABCG2 (Homo sapiens, UniProt Q9UNQ0); experiment: ABC transporter-mediated drug efflux assay, ABCG2 (pheophorbide A); details: FTC 1 μM, control ABCG2 inhibitor, HEK293/ABCG2
T1 sequence (Q9UNQ0 1-655): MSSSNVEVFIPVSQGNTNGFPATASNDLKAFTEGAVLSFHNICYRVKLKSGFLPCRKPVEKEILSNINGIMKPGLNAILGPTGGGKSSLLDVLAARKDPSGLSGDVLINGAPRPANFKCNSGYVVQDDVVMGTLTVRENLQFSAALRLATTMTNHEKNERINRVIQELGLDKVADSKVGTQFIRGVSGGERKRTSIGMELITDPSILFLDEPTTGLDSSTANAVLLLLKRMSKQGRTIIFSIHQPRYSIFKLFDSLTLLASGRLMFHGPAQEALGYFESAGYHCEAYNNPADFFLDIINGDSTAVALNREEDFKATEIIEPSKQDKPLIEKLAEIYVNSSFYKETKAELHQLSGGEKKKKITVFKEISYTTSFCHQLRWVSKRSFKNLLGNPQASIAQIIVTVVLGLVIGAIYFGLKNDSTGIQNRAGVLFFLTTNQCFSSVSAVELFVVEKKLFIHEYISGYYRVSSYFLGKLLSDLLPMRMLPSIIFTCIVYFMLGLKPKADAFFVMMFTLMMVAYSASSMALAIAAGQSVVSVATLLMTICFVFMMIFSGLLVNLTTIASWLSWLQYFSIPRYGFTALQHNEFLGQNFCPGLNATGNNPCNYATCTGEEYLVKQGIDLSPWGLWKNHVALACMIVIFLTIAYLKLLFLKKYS
Experimental: (§1) Specific inhibitors for ABCB1 (PSC833) and ABCG2 (FTC) were used as a control for comparison. Cells were analyzed by using a LSRFortessa cell analyzer (BD Biosciences). […] At least 10,000 events were collected for quantitative analysis.

[3] = tested on: p27^Kip1 (CDKN1B); experiment: Real-time PCR of p27^Kip1 expression in H1975; format: cell-based, human; details: H1975, 24 h, flunarizine 2.5, 5, or 10 μM or SAHA 0.25, 0.5, or 1 μM; all concentrations tested
Experimental: (§2) Reverse transcription was performed using 1 μg of total RNA sample with the PrimeScript First Strand cDNA Synthesis Kit (TaKaRa Biomedical Technology) at 37 °C for 10 min. The cDNA was then amplified by real-time PCR to determine the relative expression of p27^Kip1 and BIM using the KAPA SYBR FAST qPCR kit (KapaBiosystems, Wilmington, Massachusetts) with a LightCycler 480 Instrument I instrument (Roche Applied Science, Indianapolis, Indiana). The house-keeping gene GAPDH was also measured for normalization. Specific primer sequences used in the PCR reactions are p27^Kip1, forward 5′-[…]-3′ and reverse 5′-[…]-3′; Bim, forward 5′-[…]-3′ and reverse 5′-[…]-3′; and GAPDH, forward 5′-[…]-3′ and reverse 5′-[…]-3′. The PCR temperature program was set at 95 °C for 5 min, followed by 35 cycles of 95 °C for 10 s and 60 °C for 10 s. The fluorescent signal was detected at the end of the PCR elongation step of every cycle to keep track of the amount of amplified DNA. ΔCt was calculated by subtracting the Ct of GAPDH from the Ct of Bim or p27^Kip1. Fold change in gene expression was analyzed by the 2^–ΔΔCt method.

[4] = tested on: Bim (BCL2L11); experiment: Real-time PCR of Bim expression in H1975; format: cell-based, human; details: H1975, 24 h, flunarizine 2.5, 5, or 10 μM or SAHA 0.25, 0.5, or 1 μM; all concentrations tested
Experimental: as §2

[5] = cited from earlier work
[6] = target: ABCB1 (Homo sapiens, UniProt P08183); experiment: ABC transporter-mediated drug efflux assay, ABCB1 (rhodamine 123); details: PSC833 1 μM, control ABCB1 inhibitor, HEK293/ABCB1
ABCB1, sequence (P08183 whole entry, species assumed): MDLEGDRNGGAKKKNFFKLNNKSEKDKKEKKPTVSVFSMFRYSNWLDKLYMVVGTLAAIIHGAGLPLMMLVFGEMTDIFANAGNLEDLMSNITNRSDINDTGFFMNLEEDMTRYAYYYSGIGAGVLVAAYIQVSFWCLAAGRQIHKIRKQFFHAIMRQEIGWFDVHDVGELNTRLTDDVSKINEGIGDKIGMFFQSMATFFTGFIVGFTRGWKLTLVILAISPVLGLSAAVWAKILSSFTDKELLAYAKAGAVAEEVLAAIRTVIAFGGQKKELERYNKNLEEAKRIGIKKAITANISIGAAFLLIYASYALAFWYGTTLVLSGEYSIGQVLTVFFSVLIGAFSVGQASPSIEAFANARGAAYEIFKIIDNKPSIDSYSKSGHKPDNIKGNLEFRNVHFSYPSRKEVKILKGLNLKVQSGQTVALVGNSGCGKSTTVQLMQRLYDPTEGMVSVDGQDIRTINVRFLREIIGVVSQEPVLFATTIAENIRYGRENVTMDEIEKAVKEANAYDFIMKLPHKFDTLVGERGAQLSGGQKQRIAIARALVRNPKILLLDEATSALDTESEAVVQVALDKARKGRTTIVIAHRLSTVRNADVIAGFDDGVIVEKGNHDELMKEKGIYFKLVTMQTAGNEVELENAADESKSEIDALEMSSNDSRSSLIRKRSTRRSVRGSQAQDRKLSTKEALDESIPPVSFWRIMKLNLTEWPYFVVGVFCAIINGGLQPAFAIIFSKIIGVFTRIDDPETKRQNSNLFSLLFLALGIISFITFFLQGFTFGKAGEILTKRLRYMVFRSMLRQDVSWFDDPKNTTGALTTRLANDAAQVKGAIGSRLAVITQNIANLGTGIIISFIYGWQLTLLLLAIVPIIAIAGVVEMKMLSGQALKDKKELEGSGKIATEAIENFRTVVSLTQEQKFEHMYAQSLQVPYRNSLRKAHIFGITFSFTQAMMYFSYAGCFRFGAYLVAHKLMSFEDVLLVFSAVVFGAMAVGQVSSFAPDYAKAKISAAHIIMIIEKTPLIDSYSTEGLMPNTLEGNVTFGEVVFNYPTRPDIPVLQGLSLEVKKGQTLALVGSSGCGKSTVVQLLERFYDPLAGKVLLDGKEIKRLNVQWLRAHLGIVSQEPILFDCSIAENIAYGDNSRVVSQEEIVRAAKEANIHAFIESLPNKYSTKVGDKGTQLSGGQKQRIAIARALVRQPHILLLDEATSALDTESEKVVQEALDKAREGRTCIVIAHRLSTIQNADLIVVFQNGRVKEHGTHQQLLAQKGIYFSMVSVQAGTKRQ
Experimental: as §1

[7] = tested on: H1650 cells
[8] = in vivo; details: NOD SCID γ (NSG), mouse
Experimental: A Zorbax Eclipse XDB-C18 column (4.6 × 250 mm^2, 5 μm, Agilent Technologies) was used to achieve chromatographic separation of the analytes. An isocratic chromatographic system was used. The mobile phase was water:acetonitrile (35:65, v/v) with 0.1% formic acid at a flow rate of 0.25 mL/min. The injection volume of the sample was 10 μL. The triple quadrupole mass spectrometer was operated in positive electrospray ionization mode. The spray voltage was +3000 V, and the vaporizer temperature was 280 °C. The pressure of the collision gas was 1.0 mTorr.

[9] = tested on: A549 cells; details: A549, gefitinib 5 μM alone, 48 h
Experimental: At least 10,000 events were acquired using a LSRFortessa cell analyzer, and the flow cytometric data were analyzed using BD FACSDiva software (BD Biosciences). Apoptotic cells were defined as the ones stained positive for both Annexin V-FITC and 7-AAD.

[10] = tested on: H820 cells
[11] = tested on: H820 cells; details: H820, gefitinib 5 μM alone, 48 h
[12] = tested on: H1975 cells
[13] = tested on: H1975 cells; details: H1975, gefitinib 5 μM alone, 48 h

In the case of `C(=C\c1ccccc1)/CN1CCN(C(c2ccccc2)c2ccccc2)CC1` [cinnarizine], the “fold increase in histone H3 acetylation (AcH3) over the vehicle control” value [1] is reported as 15 ± 3 fold.
For `COc1ccc2c3c([nH]c2c1)[C@H](C=C(C)C)N1C(=O)[C@@H]2CCCN2C(=O)[C@@H]1C3` [FTC], the “efflux of pheophorbide A (ABCG2 substrate)” value [2] was “potently inhibited the efflux”.
In the case of `O=C(CCCCCCC(=O)Nc1ccccc1)NO` [SAHA, Vorinostat], the “p27^Kip1 expression” value [3] is listed as “significantly increase”, the Bim expression [4] is listed as “significantly increase” and the elimination half-life [5] is listed as ~2 h.
In the case of `Nc1nc(N)c2nc(-c3ccccc3)c(N)nc2n1` [triamterene], the “fold increase in histone H3 acetylation (AcH3) over the vehicle control” value [1] is reported as 75 ± 6 fold.
For `C/C=C/C[C@@H](C)C(=O)[C@H]1C(=O)N[C@@H](C(C)C)C(=O)N(C)CC(=O)N(C)[C@@H](CC(C)C)C(=O)N[C@@H](C(C)C)C(=O)N(C)[C@@H](CC(C)C)C(=O)N[C@@H](C)C(=O)N[C@H](C)C(=O)N(C)[C@@H](CC(C)C)C(=O)N(C)[C@@H](CC(C)C)C(=O)N(C)[C@@H](C(C)C)C(=O)N1C` [PSC833], the “efflux of rhodamine 123 (ABCB1 substrate)” value [6] was “potently inhibited the efflux”.
`COc1cc2ncnc(Nc3ccc(F)c(Cl)c3)c2cc1OCCCN1CCOCC1` [gefitinib] showed a viability [7] of 52 ± 8%, a concentration at 4 h [8] of 32 ± 6 nM and an apoptotic cell population [9] of 7.6 ± 0.9%. It also gave a viability [10] of 66 ± 8%, an apoptotic cell population [11] of 7.9 ± 1.6% and a viability [12] of 61 ± 5%. For the same molecule, the apoptotic cell population [13] was 8.9 ± 1.3%.

Reference: article PMC10580381 (ACS Pharmacology & Translational Science, 2023)
